Data reported in US9266892B2, “Fused pyrazoles as FGFR inhibitors” (Incyte Corporation, priority 2012, dated 2016).

Legend:
Assay type in all cases: biochemical
[1] = molecular target: T1, FGFR1 (Homo sapiens, UniProt P11362); test: FGFR Enzymatic Assay (FRET peptide phosphorylation), FGFR1; details: FGFR1 0.02 nM, ATP 210 μM
T1 construct: purchased Millipore or Invitrogen
Procedure: (§1) The inhibitor potency of the Example compounds was measured in an enzyme assay that measures peptide phosphorylation using FRET measurements to detect product formation. Inhibitors were serially diluted in DMSO and a volume of 0.5 μL was transferred to the wells of a 384-well plate. For FGFR3, a 10 μL volume of FGFR3 enzyme (Millipore) diluted in assay buffer (50 mM HEPES, 10 mM MgCl2, 1 mM EGTA, 0.01% Tween-20, 5 mM DTT, pH 7.5) was added to the plate and pre-incubated for 5-10 minutes. Appropriate controls (enzyme blank and enzyme with no inhibitor) were included on the plate. The assay was initiated by the addition of a 10 μL solution containing biotinylated EQEDEPEGDYFEWLE peptide substrate (SEQ ID NO: 1) and ATP (final concentrations of 500 nM and 140 μM respectively) in assay buffer to the wells. The plate was incubated at 25° C. for 1 hr. The reactions were ended with the addition of 10 μL/well of quench solution (50 mM Tris, 150 mM NaCl, 0.5 mg/mL BSA, pH˜7.8, 30 mM EDTA with Perkin Elmer Lance Detection Reagents at 3.75 nM Eu-antibody PY20 and 180 nM APC-Streptavidin). The plate was allowed to equilibrate for 1 hour before scanning the wells on a PheraStar plate reader (BMG Labtech). The enzymes were purchased from Millipore or Invitrogen.
(§2) FGFR1 and FGFR2 were measured under equivalent conditions with the following changes in enzyme and ATP concentrations: FGFR1, 0.02 nM and 210 μM, respectively and FGFR2, 0.01 nM and 100 μM, respectively.
(§3) GraphPad prism3 was used to analyze the data. The IC50 values were derived by fitting the data to the equation for a sigmoidal dose-response with a variable slope. Y=Bottom+(Top−Bottom)/(1+10^((Log IC50−X)*HillSlope)) where X is the logarithm of concentration and Y is the response.

[2] = molecular target: T2, FGFR2 (Homo sapiens, UniProt P21802); test: FGFR Enzymatic Assay (FRET peptide phosphorylation), FGFR2; details: FGFR2 0.01 nM, ATP 100 μM
T2 construct: purchased Millipore or Invitrogen
Procedure: as §1, §2, §3

[3] = molecular target: T3, FGFR3 (Homo sapiens, UniProt P22607); test: FGFR Enzymatic Assay (FRET peptide phosphorylation), FGFR3; details: ATP 140 μM, 25° C. for 1 hr
T3 construct: purchased Millipore
Procedure: as §1, §3

Measured: IC50

T1 sequence (P11362 22-822): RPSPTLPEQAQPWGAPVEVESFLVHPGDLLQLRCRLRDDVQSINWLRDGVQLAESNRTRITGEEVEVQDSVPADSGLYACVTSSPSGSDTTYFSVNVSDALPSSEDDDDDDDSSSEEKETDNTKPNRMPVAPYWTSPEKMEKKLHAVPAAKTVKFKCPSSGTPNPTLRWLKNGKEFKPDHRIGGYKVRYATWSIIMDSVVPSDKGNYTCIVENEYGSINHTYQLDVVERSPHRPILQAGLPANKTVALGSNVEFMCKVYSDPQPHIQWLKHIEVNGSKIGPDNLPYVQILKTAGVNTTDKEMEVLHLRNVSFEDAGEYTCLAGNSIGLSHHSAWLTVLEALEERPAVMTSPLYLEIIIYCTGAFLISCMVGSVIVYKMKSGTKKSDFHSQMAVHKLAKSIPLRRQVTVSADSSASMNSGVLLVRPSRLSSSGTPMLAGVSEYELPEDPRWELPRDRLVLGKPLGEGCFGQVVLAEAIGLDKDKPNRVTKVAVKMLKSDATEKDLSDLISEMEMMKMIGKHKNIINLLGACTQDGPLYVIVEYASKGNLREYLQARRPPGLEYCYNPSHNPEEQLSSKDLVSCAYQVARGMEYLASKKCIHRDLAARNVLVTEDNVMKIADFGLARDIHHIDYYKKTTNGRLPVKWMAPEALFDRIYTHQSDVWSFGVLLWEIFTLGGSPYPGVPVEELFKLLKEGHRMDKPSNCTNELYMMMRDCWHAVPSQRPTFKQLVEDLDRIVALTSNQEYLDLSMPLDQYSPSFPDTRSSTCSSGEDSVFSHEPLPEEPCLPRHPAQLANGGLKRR
T3 sequence (P22607 23-806): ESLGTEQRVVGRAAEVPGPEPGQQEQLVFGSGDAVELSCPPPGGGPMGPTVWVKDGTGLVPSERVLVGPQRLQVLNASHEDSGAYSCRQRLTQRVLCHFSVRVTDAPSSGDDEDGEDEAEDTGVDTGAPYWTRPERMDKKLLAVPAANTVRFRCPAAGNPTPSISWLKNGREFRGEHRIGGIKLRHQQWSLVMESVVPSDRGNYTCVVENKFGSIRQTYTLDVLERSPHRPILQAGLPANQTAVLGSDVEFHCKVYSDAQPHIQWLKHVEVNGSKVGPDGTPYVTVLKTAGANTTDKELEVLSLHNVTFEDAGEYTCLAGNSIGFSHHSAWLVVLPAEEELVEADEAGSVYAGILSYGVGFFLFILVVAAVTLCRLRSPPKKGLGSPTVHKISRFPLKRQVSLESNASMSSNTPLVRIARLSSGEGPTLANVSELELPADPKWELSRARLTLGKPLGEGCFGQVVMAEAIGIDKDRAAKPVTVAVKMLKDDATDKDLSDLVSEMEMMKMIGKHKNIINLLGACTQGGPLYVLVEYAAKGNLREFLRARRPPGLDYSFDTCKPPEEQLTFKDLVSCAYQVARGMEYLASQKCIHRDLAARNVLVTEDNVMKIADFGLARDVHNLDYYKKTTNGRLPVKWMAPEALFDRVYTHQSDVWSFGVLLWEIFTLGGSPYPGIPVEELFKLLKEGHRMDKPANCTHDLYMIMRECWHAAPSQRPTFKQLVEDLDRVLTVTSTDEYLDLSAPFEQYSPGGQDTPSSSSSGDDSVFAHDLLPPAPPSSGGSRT
T2 sequence (P21802 22-821): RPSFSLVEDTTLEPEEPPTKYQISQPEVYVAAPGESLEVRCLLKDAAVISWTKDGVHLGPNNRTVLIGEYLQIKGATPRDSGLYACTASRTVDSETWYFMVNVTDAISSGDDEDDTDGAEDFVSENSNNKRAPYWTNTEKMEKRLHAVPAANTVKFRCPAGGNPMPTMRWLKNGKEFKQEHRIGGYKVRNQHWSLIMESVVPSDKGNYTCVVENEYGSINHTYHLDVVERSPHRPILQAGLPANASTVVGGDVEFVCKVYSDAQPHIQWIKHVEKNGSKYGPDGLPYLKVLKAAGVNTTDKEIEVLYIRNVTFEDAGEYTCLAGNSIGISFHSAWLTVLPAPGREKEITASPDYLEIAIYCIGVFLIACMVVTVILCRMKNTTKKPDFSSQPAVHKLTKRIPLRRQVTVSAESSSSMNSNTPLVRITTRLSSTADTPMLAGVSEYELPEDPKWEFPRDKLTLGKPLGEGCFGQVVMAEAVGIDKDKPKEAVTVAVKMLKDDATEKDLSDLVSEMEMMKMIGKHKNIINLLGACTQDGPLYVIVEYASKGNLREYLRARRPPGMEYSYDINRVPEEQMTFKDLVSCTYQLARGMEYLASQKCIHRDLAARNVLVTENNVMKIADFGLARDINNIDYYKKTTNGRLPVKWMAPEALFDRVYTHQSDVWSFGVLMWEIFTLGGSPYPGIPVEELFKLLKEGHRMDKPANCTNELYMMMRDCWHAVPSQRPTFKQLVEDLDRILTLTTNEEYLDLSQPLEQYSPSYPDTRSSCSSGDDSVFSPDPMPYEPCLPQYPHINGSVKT

COc1cc(OC)c(Cl)c(-c2cnc3c(-c4cnn(C)c4)n[nH]c3c2)c1Cl [Example 70, 6-(2,6-dichloro-3,5-dimethoxyphenyl)-3-(1-methyl-1H-pyrazol-4-yl)-1H-pyrazolo[4,3-b]pyridine]
< 100 nM: all assays above

COc1cc(OC)c(Cl)c(-c2cc3[nH]nc(-c4ccc(OCCN(C)C)cc4)c3cn2)c1Cl [Example 35, 2-{4-[6-(2,6-Dichloro-3,5-dimethoxyphenyl)-1H-pyrazolo[4,3-c]pyridin-3-yl]phenoxy}-N,N-dimethylethanamine]
< 100 nM: all assays above

COc1cc(OC)c(Cl)c(-c2cc3[nH]nc(-c4cnn(CC(=O)N5CCC(N(C)C)C5)c4)c3cn2)c1Cl (stereo not drawn) [Example 44, 1-({4-[6-(2,6-Dichloro-3,5-dimethoxyphenyl)-1H-pyrazolo[4,3-c]pyridin-3-yl]-1H-pyrazol-1-yl}acetyl)-N,N-dimethylpyrrolidin-3-amine]
< 100 nM: all assays above

CCN1Cc2cc(-c3n[nH]c4cc(-c5c(F)c(OC)cc(OC)c5Cl)ncc34)ccc2C1=O [Example 69, 5-[6-(2-chloro-6-fluoro-3,5-dimethoxyphenyl)-1H-pyrazolo[4,3-c]pyridin-3-yl]-2-ethylisoindolin-1-one]
< 100 nM: all assays above

COc1cc(OC)c(Cl)c(-c2cc3[nH]nc(-c4cnn(C(C)C#N)c4)c3cn2)c1Cl (stereo not drawn) [Example 33, 2-{4-[6-(2,6-Dichloro-3,5-dimethoxyphenyl)-1H-pyrazolo[4,3-c]pyridin-3-yl]-1H-pyrazol-1-yl}propanenitrile]
< 100 nM: all assays above

COc1cc(OC)c(Cl)c(-c2cc3[nH]nc(-c4ccc5c(c4)CN(C4CC4)C5=O)c3cn2)c1Cl [Example 28, 2-Cyclopropyl-5-[6-(2,6-dichloro-3,5-dimethoxyphenyl)-1H-pyrazolo[4,3-c]pyridin-3-yl]isoindolin-1-one]
< 100 nM: all assays above

COc1cc(OC)c(Cl)c(-c2ncc3c(-c4ccc5c(c4)CCC(C(=O)N(C)C)O5)n[nH]c3n2)c1Cl (stereo not drawn) [Example 2, 6-[6-(2,6-Dichloro-3,5-dimethoxyphenyl)-1H-pyrazolo[3,4-d]pyrimidin-3-yl]-N,N-dimethylchromane-2-carboxamide]
< 100 nM: all assays above

COc1cc(OC)c(F)c(-c2ncc3c(-c4ccc5c(c4)CCC(C(=O)N(C)C)O5)n[nH]c3n2)c1F (stereo not drawn) [Example 6, 6-[6-(2,6-Difluoro-3,5-dimethoxyphenyl)-1H-pyrazolo[3,4-d]pyrimidin-3-yl]-N,N-dimethylchromane-2-carboxamide]
< 100 nM: all assays above

COc1cc(OC)c(F)c(-c2cc3[nH]nc(-c4ccc5c(c4)CN(CC(C)O)C5=O)c3cn2)c1F (stereo not drawn) [Example 64, 5-[6-(2,6-Difluoro-3,5-dimethoxyphenyl)-1H-pyrazolo[4,3-c]pyridin-3-yl]-2-(2-hydroxypropyl)isoindolin-1-one]
< 100 nM: all assays above

CCN1Cc2cc(-c3n[nH]c4nc(-c5c(Cl)c(OC)cc(OC)c5Cl)ncc34)cnc2C1=O [Example 77, 3-[6-(2,6-Dichloro-3,5-dimethoxyphenyl)-1H-pyrazolo[3,4-d]pyrimidin-3-yl]-6-ethyl-5,6-dihydro-7H-pyrrolo[3,4-b]pyridin-7-one]
< 100 nM: all assays above

COc1cc(OC)c(F)c(-c2ncc3c(-c4ccc(N5CCN(C)CC5)nc4)n[nH]c3n2)c1F [Example 18, 6-(2,6-Difluoro-3,5-dimethoxyphenyl)-3-[6-(4-methylpiperazin-1-yl)pyridin-3-yl]-1H-pyrazolo[3,4-d]pyrimidine]
< 100 nM: all assays above

COc1cc(OC)c(F)c(-c2cc3[nH]nc(-c4ccc5c(c4)CN(CCC4CCCN4C)C5=O)c3cn2)c1F (stereo not drawn) [Example 68, 5-[6-(2,6-Difluoro-3,5-dimethoxyphenyl)-1H-pyrazolo[4,3-c]pyridin-3-yl]-2-[2-(1-methylpyrrolidin-2-yl)ethyl]isoindolin-1-one]
< 100 nM: all assays above

COc1cc(OC)c(F)c(-c2cc3[nH]nc(-c4ccc5c(c4)CN(C4CCN(C)CC4)C5=O)c3cn2)c1F [Example 66, 5-[6-(2,6-Difluoro-3,5-dimethoxyphenyl)-1H-pyrazolo[4,3-c]pyridin-3-yl]-2-(1-methylpiperidin-4-yl)isoindolin-1-one]
< 100 nM: all assays above

COc1cc(OC)c(F)c(-c2cc3[nH]nc(-c4ccc5c(c4)CC(C(=O)N(C)C)O5)c3cn2)c1F (single isomer, unassigned) [Example 83, 5-[6-(2,6-Difluoro-3,5-dimethoxyphenyl)-1H-pyrazolo[4,3-c]pyridin-3-yl]-N,N-dimethyl-2,3-dihydro-1-benzofuran-2-carboxamide]
< 100 nM: all assays above

CCN1Cc2cc(-c3n[nH]c4cc(-c5c(F)c(OC)cc(OC)c5F)ncc34)cnc2C1=O [Example 55, 3-[6-(2,6-Difluoro-3,5-dimethoxyphenyl)-1H-pyrazolo[4,3-c]pyridin-3-yl]-6-ethyl-5,6-dihydro-7H-pyrrolo[3,4-b]pyridin-7-one]
< 100 nM: all assays above

COc1cc(OC)c(F)c(-c2ncc3c(-c4ccc(OCCN(C)C)cc4)n[nH]c3n2)c1F [Example 20, 2-{4-[6-(2,6-Difluoro-3,5-dimethoxyphenyl)-1H-pyrazolo[3,4-d]pyrimidin-3-yl]phenoxy}-N,N-dimethylethanamine]
< 100 nM: all assays above

COc1cc(OC)c(Cl)c(-c2cc3[nH]nc(-c4cnn(CC(=O)N(C)C)c4)c3cn2)c1Cl [Example 37, 2-{4-[6-(2,6-Dichloro-3,5-dimethoxyphenyl)-1H-pyrazolo[4,3-c]pyridin-3-yl]-1H-pyrazol-1-yl}-N,N-dimethylacetamide]
< 100 nM: all assays above

COc1cc(OC)c(Cl)c(-c2ncc3c(-c4ccc5c(c4)CN([C@H]4CC[C@@H](O)CC4)C5=O)n[nH]c3n2)c1Cl [Example 22, 5-[6-(2,6-Dichloro-3,5-dimethoxyphenyl)-1H-pyrazolo[3,4-d]pyrimidin-3-yl]-2-(cis-4-hydroxycyclohexyl)isoindolin-1-one]
< 100 nM: all assays above

COc1cc(OC)c(Cl)c(-c2ncc3c(-c4cnn(C(C)C#N)c4)n[nH]c3n2)c1Cl (stereo not drawn) [Example 73, 2-{4-[6-(2,6-Dichloro-3,5-dimethoxyphenyl)-1H-pyrazolo[3,4-d]pyrimidin-3-yl]-1H-pyrazol-1-yl}propanenitrile]
< 100 nM: all assays above

COc1cc(OC)c(Cl)c(-c2ncc3c(-c4ccc(N5CCN(C)CC5)cc4)n[nH]c3n2)c1Cl [Example 75, 6-(2,6-Dichloro-3,5-dimethoxyphenyl)-3-[4-(4-methylpiperazin-1-yl)phenyl]-1H-pyrazolo[3,4-d]pyrimidine]
< 100 nM: all assays above
